Values after ≈ are worked out from the molar mass of the structure shown. Read-outs that look alike come from different tables or passages of the source.
Columns and labels:
M. aurum = assay: Microdilution broth resazurin assay, MIC; format: cell-based, Mycolicibacterium aurum
M. kansasii = assay: Microplate Alamar Blue assay, MIC; format: cell-based, Mycobacterium kansasii; settings: for MIC: Mycobacterium kansasii, read-out: Antimycobacterial Activity MIC M. kans.
M. avium = assay: Microdilution broth resazurin assay, MIC; format: cell-based, Mycobacterium avium
M. smegmatis = assay: Microdilution broth resazurin assay, MIC; format: cell-based, Mycolicibacterium smegmatis
Mtb H37Ra = assay: Microdilution broth resazurin assay, MIC; format: cell-based, Mycobacterium tuberculosis
Mtb H37Rv = assay: Microplate Alamar Blue assay, MIC; format: cell-based, Mycobacterium tuberculosis; settings: for MIC: Mycobacterium tuberculosis, H37RV
[1] = Mycolicibacterium aurum, DSM43999; internal quality controls (standards); read-out: MINIMUM INHIBITORY CONCENTRATION Mycolicibacterium aurum DSM 43999
[2] = Mycolicibacterium aurum; read-out: Antimycobacterial Activity MIC M. aurum
[3] = Mycobacterium avium, DSM44156; internal quality controls (standards); read-out: MINIMUM INHIBITORY CONCENTRATION Mycobacterium avium DSM 44156
[4] = Mycobacterium avium; read-out: Antimycobacterial Activity MIC M. avium
[5] = Mycolicibacterium smegmatis, DSM43465; internal quality controls (standards); read-out: MINIMUM INHIBITORY CONCENTRATION Mycolicibacterium smegmatis DSM 43465
[6] = Mycolicibacterium smegmatis; read-out: Antimycobacterial Activity MIC M. smeg.
[7] = Mycobacterium tuberculosis, H37RA, read-out: Antimycobacterial Activity MIC Mtb H37Ra
[8] = Mycobacterium tuberculosis, H37RA; internal quality controls (standards); read-out: MINIMUM INHIBITORY CONCENTRATION Mycobacterium tuberculosis H37Ra
[9] = Table S5 matching pairs series A and B
[10] = Mycolicibacterium aurum, read-out: Antimycobacterial Activity MIC M. aurum
[11] = Microplate Alamar Blue assay, read-out: Antimycobacterial Activity MIC Mtb H37Rv
[12] = read-out: Antimycobacterial Activity MIC Mtb H37Rv, Table S5 matching pairs series A and B
[13] = Mycobacterium avium, read-out: Antimycobacterial Activity MIC M. avium
[14] = Mycolicibacterium smegmatis, read-out: Antimycobacterial Activity MIC M. smeg.
[15] = Mycobacterium tuberculosis, H37RA; read-out: Antimycobacterial Activity MIC Mtb H37Ra

Compound	MIC (M. kansasii) [µg/mL]	MIC (M. avium; [4]) [µg/mL]	MIC (M. smegmatis; [6]) [µg/mL]	MIC (Mtb H37Ra; [7]) [µg/mL]	Antimycobacterial Activity MIC M. aurum (M. aurum) [µg/mL]	Antimycobacterial Activity MIC M. kans. (M. kansasii) [µg/mL]	Antimycobacterial Activity MIC Mtb H37Rv (Mtb H37Rv; Microplate Alamar Blue assay) [µg/mL]	Antimycobacterial Activity MIC M. avium (M. avium) [µg/mL]	Antimycobacterial Activity MIC M. smeg. (M. smegmatis) [µg/mL]	Antimycobacterial Activity MIC Mtb H37Ra (Mtb H37Ra) [µg/mL]	MIC (M. aurum; [10]) [µg/mL]	MIC (Mtb H37Rv; [11]) [µg/mL]	MIC (M. smegmatis; [14]) [µg/mL]	MIC (Mtb H37Ra; [15]) [µg/mL]	other results
O=C(O)c1cn(C2CC2)c2cc(N3CCNCC3)c(F)cc2c1=O [CIP, ciprofloxacin, reference compound]	0.25 (≈ 0.754 µM)	1.56 (≈ 4.71 µM)	0.125 (≈ 0.377 µM)	0.25 (≈ 0.754 µM)	–	–	–	–	–	–	–	–	–	–	MIC (M. aurum; [1]): 0.0078 to 0.0156 µg/mL (≈ 0.0235 to 0.0471 µM); MIC (M. aurum; [2]): 0.0156 µg/mL (≈ 0.0472 µM); MIC (M. avium; [3]): 0.5 µg/mL (≈ 1.51 µM); MIC (M. smegmatis; [5]): 0.0625 to 0.125 µg/mL (≈ 0.189 to 0.377 µM); MIC (Mtb H37Ra; [8]): 0.125 to 0.25 µg/mL (≈ 0.377 to 0.754 µM)
COc1ccc(Cn2c(C)nc3ccccc3c2=O)c(OC)c1 [Compound 1]	–	–	–	–	≥500	>100	>100	≥500	≥500	≥500	–	–	–	–	Antimycobacterial Activity MIC M. aurum (M. aurum; [9]): ≥ 500 µg/mL; Antimycobacterial Activity MIC M. avium (M. avium; [9]): ≥ 500 µg/mL; Antimycobacterial Activity MIC M. smeg. (M. smegmatis; [9]): ≥ 500 µg/mL; Antimycobacterial Activity MIC Mtb H37Ra (Mtb H37Ra; [9]): ≥ 500 µg/mL
Cc1nc2ccccc2c(=O)n1Cc1cccc(F)c1 [Compound 4]	–	–	–	–	500	50	100	125	250	250	–	–	–	–	–
Cc1nc2ccccc2c(=O)n1Cc1ccc(C(F)(F)F)cc1 [Compound 7]	–	–	–	–	125	>100	>100	125	250	62.5	–	–	–	–	Antimycobacterial Activity MIC M. aurum (M. aurum; [9]): 125 µg/mL; Antimycobacterial Activity MIC M. avium (M. avium; [9]): 125 µg/mL; Antimycobacterial Activity MIC M. smeg. (M. smegmatis; [9]): 250 µg/mL; Antimycobacterial Activity MIC Mtb H37Ra (Mtb H37Ra; [9]): 62.5 µg/mL
Cc1nc2ccccc2c(=O)n1Cc1ccc2ccccc2c1 [Compound 8]	50 (≈ 166 µM)	–	≥ 500	≥ 250	62.5	–	–	62.5	–	≥250	62.5 (≈ 208 µM)	> 100	–	–	Antimycobacterial Activity MIC M. kans. (M. kansasii; [9]): 50 µg/mL; MIC (Mtb H37Rv; [12]): > 100 µg/mL; MIC (M. avium; [13]): 62.5 µg/mL (≈ 208 µM); Antimycobacterial Activity MIC M. smeg. (M. smegmatis; [9]): ≥ 500 µg/mL
Cc1nc2ccccc2c(=O)n1Cc1cc(F)cc(C(F)(F)F)c1 [Compound 9]	–	–	–	–	62.5	>100	>100	62.5	≥500	125	–	–	–	–	–
Cc1nc2ccccc2c(=O)n1Cc1ccc(Cl)cc1Cl [Compound 10]	–	–	–	–	≥250	>100	>100	≥250	≥250	≥250	–	–	–	–	–
CC1Nc2ccccc2C(=O)N1Cc1ccc(Cl)c(Cl)c1 (centres unmarked) [Compound 11]	> 100	≥ 250	≥ 250	≥ 250	–	–	–	–	–	≥250	–	> 100	–	–	MIC (M. aurum; [2]): ≥ 250 µg/mL; Antimycobacterial Activity MIC M. aurum (M. aurum; [9]): ≥ 250 µg/mL; MIC (Mtb H37Rv; [12]): > 100 µg/mL; Antimycobacterial Activity MIC M. avium (M. avium; [9]): ≥ 250 µg/mL; Antimycobacterial Activity MIC M. smeg. (M. smegmatis; [9]): ≥ 250 µg/mL
Cc1nc2cc(Cl)ccc2c(=O)n1Cc1cccc(C(=O)O)c1 [Compound 12]	> 100	–	–	–	–	–	–	–	–	–	≥ 62.5	> 100	≥ 62.5	≥ 62.5	MIC (M. avium; [13]): ≥ 62.5 µg/mL
Cc1nc2cc(Cl)ccc2c(=O)n1Cc1cccc(O)c1 [Compound 13]	> 100	62.5 (≈ 208 µM)	–	–	–	–	–	–	–	–	≥ 62.5	50 (≈ 166 µM)	≥ 62.5	≥ 62.5	–
Cc1nc2cc(Cl)ccc2c(=O)n1Cc1ccc(O)cc1 [Compound 14]	> 100	–	–	–	–	–	–	–	–	–	62.5 (≈ 208 µM)	> 100	62.5 (≈ 208 µM)	62.5 (≈ 208 µM)	MIC (M. avium; [13]): 62.5 µg/mL (≈ 208 µM)
COc1ccc(Cn2c(C)nc3cc(Cl)ccc3c2=O)c(OC)c1 [Compound 15]	> 100	–	–	≥ 125	≥125	–	–	≥125	≥125	≥125	≥ 125	> 100	≥ 125	–	MIC (Mtb H37Rv; [12]): > 100 µg/mL; MIC (M. avium; [13]): ≥ 125 µg/mL
COc1cccc(Cn2c(C)nc3cc(Cl)ccc3c2=O)c1 [Compound 16]	> 100	≥ 500	–	62.5 (≈ 199 µM)	≥125	–	–	–	≥125	62.5	≥ 125	> 100	≥ 125	–	MIC (Mtb H37Rv; [12]): > 100 µg/mL; Antimycobacterial Activity MIC M. avium (M. avium; [9]): ≥ 500 µg/mL
Cc1nc2cc(Cl)ccc2c(=O)n1Cc1ccccc1F [Compound 18]	> 100	≥ 500	≥ 500	–	–	–	–	–	–	–	–	> 100	–	≥ 500	MIC (M. aurum; [2]): ≥ 500 µg/mL
CO[C@H]1/C=C/O[C@@]2(C)Oc3c(C)c(O)c4c(O)c(c(/C=N/N5CCN(C)CC5)c(O)c4c3C2=O)NC(=O)/C(C)=C\C=C\[C@H](C)[C@H](O)[C@@H](C)[C@@H](O)[C@@H](C)[C@H](OC(C)=O)[C@@H]1C [RIF, rifampicin]	0.025 (≈ 0.0304 µM)	0.125 (≈ 0.152 µM)	12.5 (≈ 15.2 µM)	–	–	–	–	–	–	–	–	–	–	0.00156 (≈ 0.0019 µM)	MIC (M. aurum; [1]): 0.39 to 0.78 µg/mL (≈ 0.474 to 0.948 µM); MIC (M. aurum; [2]): 0.39 µg/mL (≈ 0.474 µM); MIC (M. avium; [3]): 0.0625 to 0.125 µg/mL (≈ 0.0759 to 0.152 µM); MIC (M. smegmatis; [5]): 12.5 to 25 µg/mL (≈ 15.2 to 30.4 µM); MIC (Mtb H37Ra; [8]): 0.00156 to 0.0031 µg/mL (≈ 0.0019 to 0.00377 µM)
